Structures can show the parent of a compound that is named as a salt. Where two headings read alike, the source gives them in different places.
Experiments:
[1] = target: mutant G2019S LRRK2 (Homo sapiens, UniProt Q5S007, G2019S); assay: LRRK2 Assay, Format 2 (Lantha Screen), G2019S mutant; assay type: biochemical; set-up: purchased Invitrogen PV4881
[2] = target: T1, GST-tagged truncated LRRK2 (Homo sapiens, UniProt Q5S007); assay: LRRK2 Assay, Format 2 (Lantha Screen), WT; assay type: biochemical
T1 construct: GST-tagged truncated LRRK2 from Invitrogen (Cat # PV4874); GST; purchased Invitrogen PV4874

[3] = geometric mean of 2-4 determinations unless otherwise indicated (a: >=5; b: single determination), read-out: LRRK2, Format 2 G2019S IC50
[4] = geometric mean of 2-4 determinations unless otherwise indicated (a: >=5; b: single determination)

T1 sequence (Q5S007 970-2527 limits assumed): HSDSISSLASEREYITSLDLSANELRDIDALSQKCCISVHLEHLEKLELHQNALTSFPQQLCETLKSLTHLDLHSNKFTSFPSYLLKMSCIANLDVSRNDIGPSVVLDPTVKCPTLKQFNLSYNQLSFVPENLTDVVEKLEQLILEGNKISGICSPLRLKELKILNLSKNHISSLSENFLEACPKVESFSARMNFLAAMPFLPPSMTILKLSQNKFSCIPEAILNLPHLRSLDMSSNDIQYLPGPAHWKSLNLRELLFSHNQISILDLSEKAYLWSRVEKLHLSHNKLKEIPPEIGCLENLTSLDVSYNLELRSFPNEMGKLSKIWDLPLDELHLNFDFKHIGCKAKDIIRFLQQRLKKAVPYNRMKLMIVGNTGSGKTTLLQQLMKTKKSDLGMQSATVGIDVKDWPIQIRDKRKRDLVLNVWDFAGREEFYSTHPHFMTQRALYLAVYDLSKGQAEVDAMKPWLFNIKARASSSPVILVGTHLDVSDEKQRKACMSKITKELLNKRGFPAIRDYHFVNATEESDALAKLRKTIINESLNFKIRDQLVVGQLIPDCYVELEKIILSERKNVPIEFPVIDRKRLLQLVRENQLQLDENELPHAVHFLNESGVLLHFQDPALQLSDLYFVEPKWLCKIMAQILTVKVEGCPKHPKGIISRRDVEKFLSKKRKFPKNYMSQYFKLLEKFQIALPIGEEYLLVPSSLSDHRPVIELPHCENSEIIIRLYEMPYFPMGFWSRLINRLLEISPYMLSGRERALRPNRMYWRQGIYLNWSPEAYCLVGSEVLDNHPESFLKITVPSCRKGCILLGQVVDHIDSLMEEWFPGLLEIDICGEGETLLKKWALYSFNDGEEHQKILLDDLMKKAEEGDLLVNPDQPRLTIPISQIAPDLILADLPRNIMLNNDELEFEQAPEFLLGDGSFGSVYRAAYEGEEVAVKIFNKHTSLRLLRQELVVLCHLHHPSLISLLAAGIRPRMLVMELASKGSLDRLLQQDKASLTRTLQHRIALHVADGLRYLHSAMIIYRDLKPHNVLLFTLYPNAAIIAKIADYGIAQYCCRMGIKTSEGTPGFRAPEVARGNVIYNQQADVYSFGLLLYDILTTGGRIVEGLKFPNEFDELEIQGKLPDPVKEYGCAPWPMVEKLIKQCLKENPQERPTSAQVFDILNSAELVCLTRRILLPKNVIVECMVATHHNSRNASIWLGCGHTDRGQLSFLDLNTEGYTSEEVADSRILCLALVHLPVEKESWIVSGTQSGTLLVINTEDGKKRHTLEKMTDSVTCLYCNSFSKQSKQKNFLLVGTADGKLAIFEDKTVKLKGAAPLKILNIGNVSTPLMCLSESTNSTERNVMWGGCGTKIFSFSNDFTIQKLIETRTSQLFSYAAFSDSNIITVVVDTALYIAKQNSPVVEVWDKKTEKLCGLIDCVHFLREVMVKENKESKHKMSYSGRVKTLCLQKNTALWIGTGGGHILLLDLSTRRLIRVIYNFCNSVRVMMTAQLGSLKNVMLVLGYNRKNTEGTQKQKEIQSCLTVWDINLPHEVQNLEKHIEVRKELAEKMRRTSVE
Chain of mutant G2019S LRRK2 (Q5S007 970-2527 G2019S limits assumed): as the sequence (Q5S007 970-2527 limits assumed) above, with G1050S counted along it

Row | IC50 [1, 3] [nM] | IC50 [2, 4] [nM] | IC50 ([1]; 100 nM LRRKtide, 1000 mM ATP (so in the source), 30 minutes at room temperature, read-out: LRRK2, Format 2 G2019S mutant IC50) [nM] | IC50 ([2]; 100 nM LRRKtide, 1000 mM ATP (so in the source), 30 minutes at room temperature) [nM] | Compound
1 | 6.84 | 7.53 |  |  | COc1ccc(Cc2nc3cnc4ccc(C#N)cc4c3n2C2CCOC(C)(C)C2)nc1 (single isomer, unassigned; ent-2) [Example 207, 1-(2,2-dimethyltetrahydro-2H-pyran-4-yl)-2-[(5-methoxypyridin-2-yl)methyl]-1H-imidazo[4,5-c]quinoline-8-carbonitrile, ENT-2]
2 | 5.22 | 6.01 |  |  | C[C@@H]1C[C@H](n2c(Cc3cn4ccccc4n3)nc3cnc4ccc(C#N)cc4c32)CCO1 [Example 158, 2-(imidazo[1,2-a]pyridin-2-ylmethyl)-1-[(2R,4R)-2-methyltetrahydro-2H-pyran-4-yl]-1H-imidazo[4,5-c]quinoline-8-carbonitrile, formate salt]
3 | 26.6 | 24.9 |  |  | C[C@@H]1C[C@H](n2c(Cc3cncs3)nc3cnc4ccc(C#N)cc4c32)CCO1 [Example 231, 1-[(2R,4R)-2-methyltetrahydro-2H-pyran-4-yl]-2-(1,3-thiazol-5-ylmethyl)-1H-imidazo[4,5-c]quinoline-8-carbonitrile, formate salt]
4 | 33.5 | 29.3 |  |  | Cc1cc(Cc2nc3cnc4ccc(C#N)cc4c3n2[C@H]2CC[C@@H](F)C2)no1 [Example 241, 1-[(1S,3R)-3-fluorocyclopentyl]-2-[(5-methyl-1,2-oxazol-3-yl)methyl]-1H-imidazo[4,5-c]quinoline-8-carbonitrile, formate salt]
5 | 22.7 | 18.2 |  |  | Cc1cn(Cc2nc3cnc4ccc(Cl)cc4c3n2[C@H]2CC[C@@H](F)C2)nn1 (single isomer, unassigned) [Example C55, 8-chloro-1-(cis-3-fluorocyclopentyl)-2-[(4-methyl-1H-1,2,3-triazol-1-yl)methyl]-1H-imidazo[4,5-c]quinoline]
6 | 9.37 | 9.71 |  |  | C[C@@H]1C[C@H](n2c(Cc3cnco3)nc3cnc4ccc(C#N)cc4c32)CCO1 [Example 229, 1-[(2R,4R)-2-methyltetrahydro-2H-pyran-4-yl]-2-(1,3-oxazol-5-ylmethyl)-1H-imidazo[4,5-c]quinoline-8-carbonitrile, formate salt]
7 |  |  | 34.5 | 26.8 | COCc1cn(Cc2nc3cnc4ccc(C#N)cc4c3n2C2CCC(F)C2)nn1 (single isomer, unassigned; ent-2) [enantiomer of Example 132, 1-(cis-3-fluorocyclopentyl)-2-{[4-(methoxymethyl)-1H-1,2,3-triazol-1-yl]methyl}-1H-imidazo[4,5-c]quinoline-8-carbonitrile, ENT-2]
8 | 6.01 | 6.33 |  |  | Cc1cnn(Cc2nc3cnc4ccc(C#N)cc4c3n2[C@H]2CC[C@@H](F)C2)c1 (single isomer, unassigned) [Example 94, 1-[cis-3-Fluorocyclopentyl]-2-[(4-methyl-1H-pyrazol-1-yl)methyl]-1H-imidazo[4,5-c]quinoline-8-carbonitrile]
9 | 25.1 | 19.9 |  |  | Cc1cnn(Cc2nc3cnc4ccc(C#N)cc4c3n2[C@@H]2CCN(C)C2)c1 [Example 194, 2-[(4-methyl-1H-pyrazol-1-yl)methyl]-1-[(3R)-1-methylpyrrolidin-3-yl]-1H-imidazo[4,5-c]quinoline-8-carbonitrile]
10 | 5.03 | 4.81 |  |  | C[C@@H]1C[C@H](n2c(C(F)c3csnn3)nc3cnc4ccc(Cl)cc4c32)CCO1 (stereo partly drawn) [Example 220, 8-chloro-2-[fluoro(1,2,3-thiadiazol-4-yl)methyl]-1-[(2R,4R)-2-methyltetrahydro-2H-pyran-4-yl]-1H-imidazo[4,5-c]quinoline, formate salt]
11 | 3.79 | 3.96 |  |  | Cc1nn2cc(Cc3nc4cnc5ccc(C#N)cc5c4n3[C@@H]3CCO[C@H](C)C3)nc2s1 [Example 157, 2-[(2-methylimidazo[2,1-b][1,3,4]thiadiazol-6-yl)methyl]-1-[(2R,4R)-2-methyltetrahydro-2H-pyran-4-yl]-1H-imidazo[4,5-c]quinoline-8-carbonitrile, formate salt]
